Structures can show the parent of a compound that is named as a salt.
How the values were obtained:
all test organisms = assay: MIC, micro broth dilution (summary in text); type: cell-based; conditions: planktonic cells, read-out: MICs ranging over all test organisms
Experimental: An assay was made using a minimum inhibitory concentration (MIC) and minimum bactericidal concentration (MBC) and minimum fungicidal concentration (MFC) determination. The MIC was determined by the micro broth dilution method in 96-well plates. […] A 10 μL containing 1×10^5 bacterial cells or 2×10^3 fungal cells were added to each well. The inoculated plates were covered with a lid, sealed with Parafilm, and incubated for 24 h at 37° C. with slight rocking on a tilting platform shaker. After incubation, the optical density at 600 nm (OD 600) of the cultures in each well was measured using an xMark™ Microplate Absorbance Spectrophotometer (Bio-Rad). The MIC was defined as the lowest concentration of antimicrobial compound at which the culture OD600 values were similar to uninoculated control wells. MBCs and MFCs were determined by transferring 100 μL from each well with no apparent growth onto appropriate agar plates, followed by incubation for 24 h at 37° C.

C. albicans ON47 = assay: Checkerboard, FMCI; type: cell-based, Candida albicans; conditions: for microbicidal concentration in combination: EDTA + ethanol
Experimental: An assay was made using a minimum inhibitory concentration (MIC) and minimum bactericidal concentration (MBC) and minimum fungicidal concentration (MFC) determination. The MIC was determined by the micro broth dilution method in 96-well plates. Serial two-fold dilutions of tetrasodium EDTA (from 2% to 0.015%), ethanol (from 50% to 0.1%) and chlorhexidine HCl (from 100 μg/mL to 0.025 μg/mL) were prepared in MH broth with a final volume of 90 μL per well. A 10 μL containing 1×10^5 bacterial cells or 2×10^3 fungal cells were added to each well. The inoculated plates were covered with a lid, sealed with Parafilm, and incubated for 24 h at 37° C. with slight rocking on a tilting platform shaker. After incubation, the optical density at 600 nm (OD 600) of the cultures in each well was measured using an xMark™ Microplate Absorbance Spectrophotometer (Bio-Rad). […] MBCs and MFCs were determined by transferring 100 μL from each well with no apparent growth onto appropriate agar plates, followed by incubation for 24 h at 37° C.
A fourth composition and solution included tetrasodium EDTA with ethanol or chlorhexidine HCl. This fourth composition and solution were created using checkerboard titration methods using micro broth dilution in 96-well microtiter plates. The concentrations of antimicrobials used were based on previously determined MIC values. Briefly, 200 μL, of two-fold dilutions of tetrasodium EDTA and ethanol or chlorhexidine HCl were prepared in MH or MH II broth with standardized cell suspension. […] Microtiter plates were incubated at 37° C. for 24 h, and the results were analyzed. Each test was performed in duplicate and included a growth control without adding any antimicrobials.

Q: `[H]/N=C(\N/C(=N/[H])NCCCCCCNC(=N)NC(=N)Nc1ccc(Cl)cc1)Nc1ccc(Cl)cc1` [Chlorhexidine HCl, 1,6-bis(4′-chlorophenylbiguanide) hexane] was tested. Which MIC (all test organisms) did it give?
A: The MIC was 0.1 to 50 µg/mL.

Q: And the “Chlorhexidine HCl microbicidal concentration in combination” value (C. albicans ON47; EDTA + chlorhexidine HCl)?
A: The value was 1.6 µg/mL.

Q: What does the source list for `O=C([O-])CN(CCN(CC(=O)[O-])CC(=O)[O-])CC(=O)[O-].[Na+].[Na+].[Na+].[Na+]` [EDTA, tetrasodium EDTA]?
A: EDTA microbicidal concentration in combination (C. albicans ON47; EDTA + chlorhexidine HCl): 0.031 % w/v; microbicidal concentration in combination (C. albicans ON47): 0.25 % w/v

Q: With `CCO` [Ethanol, ethanol] as the compound, how does the “microbicidal concentration in combination” value (C. albicans ON47) read?
A: Its value is 3.125 % w/v.

From patent US20230263757A1, “DISINFECTING WIPE KIT FOR CENTRAL VENOUS ACCESS DEVICES” (SterileCare Inc., priority 2022, published 2023)
